Entries after “also recorded” stand apart in the source; their conditions may differ. Like-named read-outs stand apart in the source and are kept apart here.
Legend:
UGT2B7Y(268) [1] = biological target: T1, UGT2B7Y(268) (Homo sapiens, UniProt P16662)
T1 sequence (P16662 24-529): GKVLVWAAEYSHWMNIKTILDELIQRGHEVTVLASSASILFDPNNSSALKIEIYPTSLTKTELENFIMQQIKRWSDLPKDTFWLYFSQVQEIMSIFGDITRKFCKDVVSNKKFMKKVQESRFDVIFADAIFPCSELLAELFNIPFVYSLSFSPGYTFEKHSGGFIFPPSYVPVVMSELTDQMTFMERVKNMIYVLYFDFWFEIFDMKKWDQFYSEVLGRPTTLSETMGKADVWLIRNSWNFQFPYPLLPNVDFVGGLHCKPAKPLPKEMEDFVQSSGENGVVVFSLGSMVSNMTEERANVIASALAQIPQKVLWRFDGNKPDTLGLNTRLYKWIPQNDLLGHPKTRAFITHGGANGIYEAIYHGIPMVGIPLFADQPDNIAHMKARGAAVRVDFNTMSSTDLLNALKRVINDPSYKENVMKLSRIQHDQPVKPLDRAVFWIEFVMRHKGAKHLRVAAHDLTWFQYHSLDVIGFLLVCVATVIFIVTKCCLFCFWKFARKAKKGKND

UGT2B7Y(268) [2] = biological target: T1, UGT2B7Y(268); test: Kinetics of glucuronidation, membrane preparations of HK293 cells stably expressing UGT2B7Y(268)
UGT2B7H(268) [3] = biological target: T2, UGT2B7H(268) (Homo sapiens, UniProt P16662, Y268H); test: Kinetics of glucuronidation, membrane preparations of HK293 cells stably expressing UGT2B7H(268)
T2 sequence (P16662 24-529 Y268H): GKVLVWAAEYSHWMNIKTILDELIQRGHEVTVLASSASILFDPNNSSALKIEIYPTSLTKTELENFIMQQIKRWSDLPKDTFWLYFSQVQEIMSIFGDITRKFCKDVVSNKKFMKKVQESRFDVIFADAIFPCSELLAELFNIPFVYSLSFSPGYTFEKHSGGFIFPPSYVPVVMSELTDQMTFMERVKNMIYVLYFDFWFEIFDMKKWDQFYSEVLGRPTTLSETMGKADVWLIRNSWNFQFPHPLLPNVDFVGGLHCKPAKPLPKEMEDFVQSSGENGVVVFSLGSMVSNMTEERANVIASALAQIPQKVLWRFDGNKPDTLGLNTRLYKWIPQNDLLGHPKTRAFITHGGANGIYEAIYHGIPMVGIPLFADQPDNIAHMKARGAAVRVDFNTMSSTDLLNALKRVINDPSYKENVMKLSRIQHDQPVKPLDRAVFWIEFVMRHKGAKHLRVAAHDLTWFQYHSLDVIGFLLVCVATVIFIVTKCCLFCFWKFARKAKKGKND

UGT2B7H(268) [4] = biological target: T2, UGT2B7H(268)
UGT2B7 = biological target: T3, UGT2B7 (Homo sapiens, UniProt P16662)
T3 sequence (P16662 24-529): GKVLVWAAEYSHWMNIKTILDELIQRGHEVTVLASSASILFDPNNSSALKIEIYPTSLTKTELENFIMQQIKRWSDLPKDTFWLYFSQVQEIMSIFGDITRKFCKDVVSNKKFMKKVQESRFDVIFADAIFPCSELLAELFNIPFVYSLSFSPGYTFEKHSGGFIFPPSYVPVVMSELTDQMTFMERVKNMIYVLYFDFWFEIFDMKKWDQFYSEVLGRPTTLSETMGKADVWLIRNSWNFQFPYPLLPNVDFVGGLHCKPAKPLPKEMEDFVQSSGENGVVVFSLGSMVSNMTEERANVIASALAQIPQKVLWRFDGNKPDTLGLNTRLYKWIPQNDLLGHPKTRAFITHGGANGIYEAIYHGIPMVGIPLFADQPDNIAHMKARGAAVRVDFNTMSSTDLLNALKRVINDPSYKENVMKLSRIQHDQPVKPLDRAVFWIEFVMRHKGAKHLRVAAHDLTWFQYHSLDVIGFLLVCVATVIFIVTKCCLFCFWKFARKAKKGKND
Text: Heterologous expression and characterization of full length UGT 2B7.
Stable UGT2B7 cell lines were established from embryonic human kidney cells (HK293 cells) and microsomal membrane fractions from these cells were used to assess the properties of the recombinant enzyme. […] The specificity of the purified UGT2B7 will be assessed by determining overall catalytic efficiency with each aglycone substrate, as reflected in a ratio of the two fundamental Michaelis kinetic parameters, Vmax/Km. Reaction rates will be determined over a range of substrate concentrations and nonlinear regression will be used to fit the UGT rate data to velocity versus substrate curves (Graph Pad, Prism). Vmax/Km values will be determined and compared with those determined with the enzyme isolated from HK293 cells (Table 1). […] This ratio will be determined for the purified enzyme using HPLC-based methods for separation and quantification of the two glucuronides.

[5] = biological target: T4, bacterial β-glucuronidase (Escherichia coli, UniProt P05804); test: Inhibition of 4-methylumbelliferyl-β-D-glucuronide cleavage by β-D-glucuronides; type: biochemical; set-up: purchased Sigma, St. Louis Mo; G-7396; conditions: for inhibition of 4-methylumbelliferyl-β-D-glucuronide cleavage (production of 4-methylumbelliferone): FIG. 2, varying glucuronide concentrations
Text: FIG. 2 depicts the effect of varying concentrations of β-D-glucuronide on the ability of β-glucuronidase to cleave various substrates.
Tetrahydrocortisone 3-β-D-glucuronide was obtained from Molecular Probes, Eugene, Oreg. Recombinant control and UGT1A6 membrane preparations were generated and are commercially available from PanVera Corporation, Madison Wis. All other reagents were analytical grade or better and purchased from a variety of commercial sources.
In order to show the feasibility of developing a high throughput inhibition assay, we examined the potential of a variety of structurally dissimilar, commercially available β-D-glucuronides to act as inhibitors for the cleavage of 4-methylumbelliferyl-β-D-glucuronide. These β-D-glucuronides represent compounds that might potentially be formed by UGT activity e.g. phenol and steroid glucuronides.

[6] = biological target: T4, bacterial β-glucuronidase; conditions: read-out: apparent Km value for cleavage by β-glucuronidase; linear conditions of protein concentration and incubation time; FIG. 1
[7] = cited from earlier work
recombinant human UGT1A6 = recombinant human UGT1A6 (Homo sapiens, UniProt P19224)
Procedure: Two approaches were taken to test the feasibility of coupling the UGT-dependent production of glucuronides to inhibition of fluorescent product formation by β-D-glucuronidase. The first involved extracting the UGT reaction products and adding them to the β-D-glucuronidase fluorescence assay reagents. The second involved adding the β-D-glucuronidase reaction components directly to the quenched UGT reaction. […] Following extraction, 4-methylumbelliferyl-β-D-glucuronide assay reagents were added to the extracted, dried reaction residues.
In the second approach, 4-methylumbelliferyl-β-D-glucuronide assay reagents were added directly to a β-naphthyl glucuronidation assay that was performed in a 96 well plate. […] The horogeneous format circumvented the need for extraction, but required longer incubation periods with the recombinant enzyme.
After identifying a suitable β-glucuronidase and determining the optimal concentrations of vious assay components, the fluorescent assay was tested for its ability to detect β-glucuronides generated by a recombinant UGT enzyme. […] To establish the feasibility of performing the assay in an HTS format, the assay was conducted in a 96 well plate in a homogenous format, i.e., without extracting the glucuronide produced in the UGT reaction prior to starting the β-glucuronidase reaction.

UGT2B7H(268) [8] = biological target: T2, UGT2B7H(268); conditions: reported by another laboratory; cited from earlier work
UGT2B7Y(268) [9] = biological target: T1, UGT2B7Y(268); conditions: reported by one laboratory; cited from earlier work
[10] = substrate: CN1CC[C@]23c4c5ccc(O)c4O[C@H]2C(=O)CC[C@@]3(O)[C@H]1C5; test: cells, lysate or membranes named
[11] = substrate: C=CCN1CC[C@]23c4c5ccc(O)c4O[C@H]2[C@@H](O)C=C[C@H]3[C@H]1C5; test: cells, lysate or membranes named
[12] = substrate: O=C1CC[C@@]2(O)[C@H]3Cc4ccc(O)c5c4[C@@]2(CCN3CC2CC2)[C@H]1O5; test: cells, lysate or membranes named; conditions: two values = two different passages of cultured cells
[13] = substrate: C=CCN1CC[C@]23c4c5ccc(O)c4O[C@H]2C(=O)CC[C@@]3(O)[C@H]1C5; test: cells, lysate or membranes named; conditions: two values = two different passages of cultured cells

T4 sequence (P05804 whole entry): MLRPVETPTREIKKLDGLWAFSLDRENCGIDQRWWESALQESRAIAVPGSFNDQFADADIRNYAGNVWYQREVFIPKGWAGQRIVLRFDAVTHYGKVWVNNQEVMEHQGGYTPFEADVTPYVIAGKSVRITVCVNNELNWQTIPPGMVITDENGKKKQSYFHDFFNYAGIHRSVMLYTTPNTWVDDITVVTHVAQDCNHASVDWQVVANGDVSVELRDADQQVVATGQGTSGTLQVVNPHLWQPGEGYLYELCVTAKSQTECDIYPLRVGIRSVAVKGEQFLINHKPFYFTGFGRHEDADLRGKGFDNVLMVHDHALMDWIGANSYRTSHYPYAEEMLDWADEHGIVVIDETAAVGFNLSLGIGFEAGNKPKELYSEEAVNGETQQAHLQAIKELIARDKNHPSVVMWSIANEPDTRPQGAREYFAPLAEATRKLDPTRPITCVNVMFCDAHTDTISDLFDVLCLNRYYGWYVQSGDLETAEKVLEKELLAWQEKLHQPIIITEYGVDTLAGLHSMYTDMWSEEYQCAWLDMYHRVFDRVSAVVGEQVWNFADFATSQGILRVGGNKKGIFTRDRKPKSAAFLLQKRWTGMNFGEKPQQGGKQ
Sequence of recombinant human UGT1A6 (P19224 27-532): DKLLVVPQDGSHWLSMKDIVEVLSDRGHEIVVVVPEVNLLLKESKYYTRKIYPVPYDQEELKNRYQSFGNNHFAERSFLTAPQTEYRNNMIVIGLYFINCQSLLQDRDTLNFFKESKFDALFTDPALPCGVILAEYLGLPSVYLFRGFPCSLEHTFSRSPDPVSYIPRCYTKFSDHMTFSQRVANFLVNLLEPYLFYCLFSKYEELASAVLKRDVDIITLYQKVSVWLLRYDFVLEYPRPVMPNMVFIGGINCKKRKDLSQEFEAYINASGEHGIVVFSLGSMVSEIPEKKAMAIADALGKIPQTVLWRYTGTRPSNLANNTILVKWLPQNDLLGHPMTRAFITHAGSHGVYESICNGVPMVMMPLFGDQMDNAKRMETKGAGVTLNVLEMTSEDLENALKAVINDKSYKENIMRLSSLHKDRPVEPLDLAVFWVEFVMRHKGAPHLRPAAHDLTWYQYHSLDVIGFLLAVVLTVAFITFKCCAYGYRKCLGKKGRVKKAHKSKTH

For `CC(C)NC[C@@H](O)COc1cccc2ccccc12` [R-propanolol], the “Efficiency Vmax/Km (x100)” value (UGT2B7Y(268) [1]) was 53, the Km (UGT2B7Y(268) [1]) was 180 µM and the Vmax (UGT2B7Y(268) [2]) was 96 pmol/min/mg protein. The Vmax (UGT2B7H(268) [3]) was 194, 86 pmol/min/mg protein and the “Efficiency Vmax/Km (x100)” value (UGT2B7H(268) [4]) was 192.

With `C=CCN1CC[C@]23c4c5ccc(O)c4O[C@H]2C(=O)CC[C@@]3(O)[C@H]1C5` [naloxone] the “Glucuronidation activity towards opioids” value (UGT2B7) was “demonstrated”, the Vmax (UGT2B7Y(268) [2]; UGT2B7Y, two values = two different passages of cultured cells) was 2550 pmol/min/mg protein and the Vmax (UGT2B7H(268) [3]; UGT2B7H, two values = two different passages of cultured cells) was 4530 pmol/min/mg protein.

For `O=C(O)[C@H]1O[C@H](OP(=O)(O)OP(=O)(O)OC[C@H]2O[C@@H](n3ccc(=O)[nH]c3=O)[C@H](O)[C@@H]2O)[C@H](O)[C@@H](O)[C@@H]1O` [UDPGA, Uridine 5′-diphosphoglucuronic acid], the “inhibition of 4-methylumbelliferyl-β-D-glucuronide cleavage (production of 4-methylumbelliferone)” value (shortened to “inhibition”) [5] was “not an effective competitor”.

With `CC(C)NC[C@H](O)COc1cccc2ccccc12` [S-propanolol] the “Efficiency Vmax/Km (x100)” value (UGT2B7Y(268) [1]) was 38, 259, the Vmax (UGT2B7Y(268) [2]) was 70, 140 pmol/min/mg protein and the Vmax (UGT2B7H(268) [3]) was 148 ± 30 pmol/min/mg protein. For the same molecule, the “Efficiency Vmax/Km (x100)” value (UGT2B7H(268) [4]) was 205 and the Km (UGT2B7H(268) [4]) was 72 ± 19 µM.

In the case of `O=C1CC[C@@]2(O)[C@H]3Cc4ccc(O)c5c4[C@@]2(CCN3CC2CC2)[C@H]1O5` [naltrexone], the Vmax (UGT2B7Y(268) [2]) is reported as 840, 1130 pmol/min/mg protein.

With `Cc1cc(=O)oc2cc(O[C@@H]3O[C@H](C(=O)O)[C@@H](O)[C@H](O)[C@H]3O)ccc12` [4-methylumbelliferyl-β-D-glucuronide] the Km [6] was roughly 56 µM.

With `C[C@]12CC[C@@H]3c4ccc(O[C@@H]5O[C@H](C(=O)O)[C@@H](O)[C@H](O)[C@H]5O)cc4CC[C@H]3[C@@H]1CC[C@@H]2O` [β-estradiol-3-(β-D-glucuronide)] the “inhibition” value [5] was “strongest” and the “inhibition” value ([5]; listed as estradiol β-D-glucuronide) was “More potent inhibitors”.

In the case of `CN1CC[C@]23c4c5ccc(O[C@@H]6O[C@H](C(=O)O)[C@@H](O)[C@H](O)[C@H]6O)c4O[C@H]2[C@@H](O)C=C[C@H]3[C@H]1C5` [morphine-3-O-glucuronide], the analgesic effects ([7]; human, in vivo) is given as “devoid of analgesic effects” and the “effect on the analgesic activity of morphine and morphine-6-O-glucuronide” value ([7]; human, in vivo) is given as “counteract”.

For `O=C(O)[C@H]1O[C@@H](Oc2cccc3ccccc23)[C@H](O)[C@@H](O)[C@@H]1O` [α-naphthyl β-D-glucuronide], the “inhibition” value [5] was “weakest; also recorded: weak competitor” and the “inhibition” value ([5]; listed as α-naphthol β-D-glucuronide) was “weak competitive inhibitor”.

For `Oc1cccc2ccccc12` [α-naphthol], the “non-specific interference of the aglycone with the cleavage assay” value ([5]; residues from 0 time point extractions, FIG. 3 panel A) was “does not interfere non-specifically” and the “4-methylumbelliferyl β-D-glucuronide cleavage slower with UGT1A6 assay compared to control” value (recombinant human UGT1A6) was 60%.

In the case of `CN1CC[C@]23c4c5ccc(O)c4O[C@H]2[C@@H](O[C@@H]2O[C@H](C(=O)O)[C@@H](O)[C@H](O)[C@H]2O)C=C[C@H]3[C@H]1C5` [morphine-6-O-glucuronide], the “effectiveness as an analgesic relative to the parent compound” value ([7]; clinical studies, versus morphine) is given as 2-3 times.

For `CN1CC[C@]23c4c5ccc(O)c4O[C@H]2[C@@H](O)C=C[C@H]3[C@H]1C5` [morphine], the “Glucuronidation activity towards opioids” value (UGT2B7) was “demonstrated”.

For `CC1CCC(C(C)C)C(O)C1` (stereo not shown) [menthol], the “activity toward glucuronide formation” value (UGT2B7H(268) [8]) is given as “inactive” and the “activity toward glucuronide formation” value (UGT2B7Y(268) [9]) is given as “active”.

For `C=CCN1CC[C@]23c4c5ccc(O)c4O[C@H]2[C@@H](O)C=C[C@H]3[C@H]1C5` [nalorphine], the “Glucuronidation activity towards opioids” value (UGT2B7) was “demonstrated”.

B1: UGT2B7Y(268) (Homo sapiens) (protein)
chain: GKVLVWAAEYSHWMNIKTILDELIQRGHEVTVLASSASILFDPNNSSALKIEIYPTSLTKTELENFIMQQIKRWSDLPKDTFWLYFSQVQEIMSIFGDITRKFCKDVVSNKKFMKKVQESRFDVIFADAIFPCSELLAELFNIPFVYSLSFSPGYTFEKHSGGFIFPPSYVPVVMSELTDQMTFMERVKNMIYVLYFDFWFEIFDMKKWDQFYSEVLGRPTTLSETMGKADVWLIRNSWNFQFPYPLLPNVDFVGGLHCKPAKPLPKEMEDFVQSSGENGVVVFSLGSMVSNMTEERANVIASALAQIPQKVLWRFDGNKPDTLGLNTRLYKWIPQNDLLGHPKTRAFITHGGANGIYEAIYHGIPMVGIPLFADQPDNIAHMKARGAAVRVDFNTMSSTDLLNALKRVINDPSYKENVMKLSRIQHDQPVKPLDRAVFWIEFVMRHKGAKHLRVAAHDLTWFQYHSLDVIGFLLVCVATVIFIVTKCCLFCFWKFARKAKKGKND
With B1 the Km [10] was 1360, 900 μM, the Vmax [10] was 5640, 6040 pmol/min/mg protein and the Km [11] was 77, 121 μM. For the same molecule, the Vmax [11] was 2870, 3650 pmol/min/mg protein, the Km ([12]; other: UGT2B7Y) was 140, 180 μM and the Km ([13]; other: UGT2B7Y) was 50, 40 μM. The Vmax ([13]; other: UGT2B7Y) was 3750, 2550 pmol/min/mg protein.

B2: UGT2B7H(268) (Homo sapiens; Y268H) (protein)
chain: GKVLVWAAEYSHWMNIKTILDELIQRGHEVTVLASSASILFDPNNSSALKIEIYPTSLTKTELENFIMQQIKRWSDLPKDTFWLYFSQVQEIMSIFGDITRKFCKDVVSNKKFMKKVQESRFDVIFADAIFPCSELLAELFNIPFVYSLSFSPGYTFEKHSGGFIFPPSYVPVVMSELTDQMTFMERVKNMIYVLYFDFWFEIFDMKKWDQFYSEVLGRPTTLSETMGKADVWLIRNSWNFQFPHPLLPNVDFVGGLHCKPAKPLPKEMEDFVQSSGENGVVVFSLGSMVSNMTEERANVIASALAQIPQKVLWRFDGNKPDTLGLNTRLYKWIPQNDLLGHPKTRAFITHGGANGIYEAIYHGIPMVGIPLFADQPDNIAHMKARGAAVRVDFNTMSSTDLLNALKRVINDPSYKENVMKLSRIQHDQPVKPLDRAVFWIEFVMRHKGAKHLRVAAHDLTWFQYHSLDVIGFLLVCVATVIFIVTKCCLFCFWKFARKAKKGKND
With B2 the Km [10] was 540, 670 μM, the Vmax [10] was 7510, 8570 pmol/min/mg protein and the Km [11] was 141, 171 μM. The Vmax [11] was 3990, 4670 pmol/min/mg protein, the Km ([12]; other: UGT2B7H) was 63, 200 μM and the Km ([13]; other: UGT2B7H) was 41, 60 μM. The Vmax ([13]; other: UGT2B7H) was 3810, 4530 pmol/min/mg protein.

Source: US6551790B2, “Process for glucuronidation screening” (PanVera LLC, priority 1998, dated 2003)
